In brackets after ≈: the same amount, converted by molar mass.
What was measured:
Experiment in all cases: MIC, two-fold serial dilution method
MRSA-337371 = type: cell-based, Methicillin-resistant Staphylococcus aureus; conditions: MRSA-337371
Experimental: (§1) The pleuromutilin derivatives 1-4 prepared from Example 9 of the present disclosure were determined for their effect on Methicillin-resistant Staphylococcus aureus, Methicillin-resistant Staphylococcus epidermidis, standard strains of Staphylococcus aureus (S. aureus-29213 and S. aureus-25923), clinical strains 1-48 of S. aureus, Escherichia coli, S. agalactiae and S. dysgalactiae equisimilis (S. dysgalactiae-1, S. dysgalactiae-2, S. dysgalactiae-3) and minimum inhibitory concentration (MIC) using a two-fold serial dilution method, and the results were shown in Table 1, Table 2 and Table 3. The standard strains are commercially available from ATCC, and the clinical strains are preserved by Lanzhou Institute of Husbandry and Pharmaceutical Science of Chinese Academy of Agricultural Sciences (Lanzhou, Gansu, China).

MRSE = type: cell-based, Methicillin-resistant Staphylococcus epidermidis
Experimental: as §1

S. aureus-25923 = type: cell-based, Staphylococcus aureus; conditions: S. aureus-25923
Experimental: as §1

S. aureus-29213 = type: cell-based, Staphylococcus aureus; conditions: S. aureus-29213
Experimental: as §1

E. coli-25922 = type: cell-based, Escherichia coli; conditions: E. coli-25922
Experimental: as §1

S. agalactiae-1 = type: cell-based; conditions: S. agalactiae-1
Experimental: as §1

S. dysgalactiae-1 = type: cell-based, S. dysgalactiae equisimilis; conditions: S. dysgalactiae-1
Experimental: as §1

S. dysgalactiae-2 = type: cell-based, S. dysgalactiae equisimilis; conditions: S. dysgalactiae-2
Experimental: as §1

S. dysgalactiae-3 = type: cell-based, S. dysgalactiae equisimilis; conditions: S. dysgalactiae-3
Experimental: as §1

SMILES | minimum inhibitory concentration (MRSA-337371) [µg/mL] | minimum inhibitory concentration (MRSE) [µg/mL] | minimum inhibitory concentration (S. aureus-25923) [µg/mL] | minimum inhibitory concentration (S. aureus-29213) [µg/mL] | minimum inhibitory concentration (E. coli-25922) [µg/mL] | minimum inhibitory concentration (S. agalactiae-1) [µg/mL] | minimum inhibitory concentration (S. dysgalactiae-1) [µg/mL] | minimum inhibitory concentration (S. dysgalactiae-2) [µg/mL] | minimum inhibitory concentration (S. dysgalactiae-3) [µg/mL]
C=CC1(C)CC(OC(=O)CSC(C)(C)CNC(=O)C2CCCC2)C2(C)C(C)CCC3(CCC(=O)C32)C(C)C1O (stereo not drawn) [derivative 3] | 0.25 (≈ 0.445 µM) | 0.25 (≈ 0.445 µM) | 0.125 (≈ 0.222 µM) | 0.125 (≈ 0.222 µM) | >16 | 0.125 (≈ 0.222 µM) | 0.125 (≈ 0.222 µM) | 0.125 (≈ 0.222 µM) | 0.125 (≈ 0.222 µM)
C=CC1(C)CC(OC(=O)CSC(C)(C)CNC(=O)C2CC2)C2(C)C(C)CCC3(CCC(=O)C32)C(C)C1O (stereo not drawn) [derivative 1] | 0.031 (≈ 0.0581 µM) | 0.031 (≈ 0.0581 µM) | 0.031 (≈ 0.0581 µM) | 0.031 (≈ 0.0581 µM) | >16 | 0.031 (≈ 0.0581 µM) | 0.031 (≈ 0.0581 µM) | 0.031 (≈ 0.0581 µM) | 0.031 (≈ 0.0581 µM)
C=CC1(C)CC(OC(=O)CSC(C)(C)CNC(=O)C2CCCCC2)C2(C)C(C)CCC3(CCC(=O)C32)C(C)C1O (stereo not drawn) [derivative 4] | 0.125 (≈ 0.217 µM) | 0.25 (≈ 0.434 µM) | 0.125 (≈ 0.217 µM) | 0.125 (≈ 0.217 µM) | >16 | 0.125 (≈ 0.217 µM) | 0.125 (≈ 0.217 µM) | 0.125 (≈ 0.217 µM) | 0.125 (≈ 0.217 µM)

From patent publication US20250129018A1, “PLEUROMUTILIN DERIVATIVES CONTAINING CYCLOALKYL GROUP AND PREPARATION METHODS AND APPLICATIONS THEREOF” (priority 2023, published 2025)
